Measurements as given in the METLIN SMRT retention time set (Domingo-Almenara et al. 2019).

Assay: gradient 5% acetonitrile 3 min, to 50% in 2 min, to 85% in 15 min, held 3 min, 100 µL/min
Conditions: column: Zorbax Extend-C18 2.1 x 50 mm; eluents: water / acetonitrile, 0.1% formic acid
Outline: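 A Zorbax Extend-C18 column (2.1 × 50 mm, 1.8 μm) run at 100 μL/min with water and acetonitrile, both containing 0.1% formic acid, separated mixtures of ~100 pure standards. The HPLC was coupled to a quadrupole time-of-flight mass spectrometer operated in positive and negative ionization mode, with dead and dwell volumes of 40 μL and 900 μL. Each retention time was taken from a computationally picked adduct peak that was then manually inspected.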

Structure (SMILES): O=C(NC1CC1)C1CCCN(c2ncnc3c2oc2ccccc23)C1 (stereo not given)
- RP-LC retention time: 632 s

Structure (SMILES): CN(CC1CCOC1)C(=O)c1ccccc1Br (stereo not given)
- RP-LC retention time: 697 s

Structure (SMILES): Cc1ccc(CNC(=O)C2CCCN2S(=O)(=O)c2cc3c(cc2C)NC(=O)C(C)O3)cc1 (stereo not given)
- RP-LC retention time: 824 s

Structure (SMILES): CCOC(=O)CNC(=O)NCc1cccn1Cc1cccc(C)c1
- RP-LC retention time: 834 s

Structure (SMILES): CCn1c(=O)n(Cc2cccnc2)c(=O)c2cnc(-c3ccc(OC)cc3)nc21
- RP-LC retention time: 762 s

Structure (SMILES): CCCn1cc(C(=O)Nc2cccc(F)c2)c(S(=O)(=O)N2CCC(C)CC2)n1
- RP-LC retention time: 1220 s

Structure (SMILES): CC(C)c1cc(C(=O)Nc2ccc(F)c(F)c2)nc2ccnn12
- RP-LC retention time: 1180 s

Structure (SMILES): Cc1ccc(Cl)cc1N(C)C(=O)C1CCCN(c2ncnc3c2nc2n3CCCCC2)C1 (stereo not given)
- RP-LC retention time: 918 s

Structure (SMILES): Cc1ccc(NS(=O)(=O)c2cc(-c3[nH]ncc3C(=O)N3CCOCC3)oc2C)c(C)c1
- RP-LC retention time: 721 s

Structure (SMILES): CCOc1ccccc1N1CCN(C(=O)CSc2nccnc2Oc2ccc(C)cc2)CC1
- RP-LC retention time: 1020 s

Structure (SMILES): Cc1ccc(NS(=O)(=O)c2cc3c4c(c2)CCC(=O)N4CCC3)cc1C
- RP-LC retention time: 880 s

Structure (SMILES): CCn1nnc(NCc2ccc(-c3ccc(C)c(Cl)c3)o2)n1
- RP-LC retention time: 1090 s

Structure (SMILES): O=C1CC(c2noc(-c3ccc(OC(F)(F)F)cc3)n2)CN1c1ccc(F)cc1 (stereo not given)
- RP-LC retention time: 1040 s

Structure (SMILES): CCc1ccc(NC(=O)C2CCCN(S(=O)(=O)c3cc(-c4noc(C)n4)cs3)C2)cc1 (stereo not given)
- RP-LC retention time: 992 s

Structure (SMILES): CCN1CCn2cc(S(=O)(=O)Nc3ccc(OC)cc3C)cc2C1=O
- RP-LC retention time: 716 s

Structure (SMILES): C=CCN1CC(c2nc3ccccc3n2Cc2c(F)cccc2Cl)CC1=O (stereo not given)
- RP-LC retention time: 688 s

Structure (SMILES): Cc1ccc(NC(=O)Cn2cccc2-c2nnc(C3CCC3)o2)cc1F
- RP-LC retention time: 973 s

Structure (SMILES): O=C(NCc1ccccc1C(F)(F)F)C1CCN(c2cncnc2N2CCOCC2)CC1
- RP-LC retention time: 644 s

Structure (SMILES): CCOC(=O)c1[nH]c(C)c(CCC(=O)N2CCC(C(=O)NCCCN3CCCCC3)CC2)c1C
- RP-LC retention time: 607 s

Structure (SMILES): COc1ccc(NC(C)=O)cc1NC(=O)C1CC(=O)N(c2n[nH]c3ccccc23)C1 (stereo not given)
- RP-LC retention time: 626 s

Structure (SMILES): CC(NC(=O)c1cccnc1)c1nc(-c2ccccc2)no1 (stereo not given)
- RP-LC retention time: 694 s

Structure (SMILES): CC1CC(=O)Nc2cc(S(=O)(=O)N3CCN(c4ncccn4)CC3)ccc2S1 (stereo not given)
- RP-LC retention time: 803 s

Structure (SMILES): COc1ccc(NC(=O)Cn2nc3nc(N4CCCC4)ccn3c2=O)cc1Cl
- RP-LC retention time: 676 s

Structure (SMILES): O=C(Nc1nnc(Cc2ccccc2)s1)C1CC(=O)N(c2n[nH]c3ccccc23)C1 (stereo not given)
- RP-LC retention time: 730 s

Structure (SMILES): COc1ccc(C2(C(=O)N3C[C@@H](CO)[C@H](c4ccccn4)C3)CC2)cc1
- RP-LC retention time: 605 s

Structure (SMILES): O=C(NCc1cccs1)C1CCN(Cc2cc3ccccc3n2Cc2ccccc2Cl)CC1
- RP-LC retention time: 821 s

Structure (SMILES): COc1ccc(C)cc1NC(=O)N1CCc2nc[nH]c2C1
- RP-LC retention time: 592 s

Structure (SMILES): O=C(CC1c2ncccc2C(=O)N1c1ccccc1)N1CCN(C2CCCCC2)CC1 (stereo not given)
- RP-LC retention time: 591 s

Structure (SMILES): Cc1cccc(NC(=O)CSc2nnc(C)s2)c1
- RP-LC retention time: 715 s

Structure (SMILES): Cc1ccc(-c2ccc(N3CCCC(C(=O)NCCC4=CCCCC4)C3)nn2)cc1 (stereo not given)
- RP-LC retention time: 855 s

Structure (SMILES): O=C(CCS(=O)(=O)c1ccccc1)NCc1cc(-c2ccccc2F)on1
- RP-LC retention time: 742 s

Structure (SMILES): O=C(NCc1ccccc1Cl)c1csc(C(=O)NC2CCCC2)n1
- RP-LC retention time: 931 s

Structure (SMILES): COc1ccc(CN2C=C(C(=O)OCc3nc(-c4cccc(C)c4)no3)C(C)=NS2(=O)=O)cc1
- RP-LC retention time: 1170 s

Structure (SMILES): CCn1cc(C(=O)Nc2ccc(Cl)cc2)c2cccnc21
- RP-LC retention time: 931 s

Structure (SMILES): O=C(Cn1nc2c(Oc3cccc(F)c3)nccn2c1=O)Nc1ccccc1C(F)(F)F
- RP-LC retention time: 870 s

Structure (SMILES): O=S(=O)(c1ccccc1C(F)(F)F)N1CCc2nc(-c3ccc(F)cc3)ncc2C1
- RP-LC retention time: 1150 s

Structure (SMILES): O=c1n(Cc2ccccc2Cl)nc2ccc(S(=O)(=O)N3CCCCCC3)cn12
- RP-LC retention time: 1000 s

Structure (SMILES): CCOC(=O)C1CCN(C(=O)c2ccc3c(c2)CCCN3S(=O)(=O)CC)CC1
- RP-LC retention time: 798 s

Structure (SMILES): COc1ccc(OCC(=O)N2CCN(c3cc(C)n4cnnc4n3)CC2)cc1
- RP-LC retention time: 593 s

Structure (SMILES): Cc1ccc(NC(=O)C(C)Oc2cc(C(F)(F)F)c3c(C)nn(C)c3n2)cc1C (stereo not given)
- RP-LC retention time: 586 s

Structure (SMILES): Cc1cc(N2CCN(c3ccccn3)CC2)n2nc(C(F)(F)F)nc2n1
- RP-LC retention time: 604 s

Structure (SMILES): CCn1cc(-c2ccc(C)cc2)cc1C(=O)NCCCN1CCCC1=O
- RP-LC retention time: 856 s

Structure (SMILES): COc1cccc(CN2CCn3c(nnc3[C@@H]3C[C@@H](O)CN3C)C2)c1OC
- RP-LC retention time: 549 s

Structure (SMILES): Clc1c(Cl)c(Cl)c2n[nH]nc2c1Cl
- RP-LC retention time: 962 s

Structure (SMILES): CC(C)(C)c1csc(-c2csc(S(=O)(=O)NC3CCCCCC3)c2)n1
- RP-LC retention time: 1010 s

Structure (SMILES): Cc1ccc(Nc2c(-c3ccc(N4CCOCC4)cc3)nc3ccccn23)cc1
- RP-LC retention time: 682 s

Structure (SMILES): COc1cc(-c2noc(CCn3nc(-c4ccc(Cl)cc4)ccc3=O)n2)cc(OC)c1OC
- RP-LC retention time: 974 s

Structure (SMILES): O=S(=O)(Cc1ccccc1F)N1CCC(c2noc(COCC3CC3)n2)CC1
- RP-LC retention time: 962 s

Structure (SMILES): Cn1ncc2c(Nc3ccc(O)cc3)nc(Cl)nc21
- RP-LC retention time: 731 s

Structure (SMILES): Cc1c(F)cccc1NC(=O)N1CC(Cc2nncn2C(C)C)C1
- RP-LC retention time: 659 s

Structure (SMILES): CN(Cc1ccccc1)C(=O)Cn1c(=O)c2cnc(-c3ccccc3)nc2n(C)c1=O
- RP-LC retention time: 1020 s

Structure (SMILES): CN(CC1CCOC1)C(=O)c1ccc(F)cc1Cl (stereo not given)
- RP-LC retention time: 704 s

Structure (SMILES): Cc1ccc(CNC(=O)c2cc3c(=O)n(C)ccc3n2C)o1
- RP-LC retention time: 668 s

Structure (SMILES): Cc1cc2c(cc1S(=O)(=O)N1CCCC1C(=O)N1CCCCC1)OC(C)C(=O)N2 (stereo not given)
- RP-LC retention time: 710 s

Structure (SMILES): CC(=O)Nc1ccc(NC(=O)C2CCCN(c3nccnc3Sc3ccc(C)cc3)C2)cc1 (stereo not given)
- RP-LC retention time: 894 s

Structure (SMILES): O=C(NC1CC1)C1CCc2sc(C(=O)N3CCCC3)cc2C1 (stereo not given)
- RP-LC retention time: 654 s

Structure (SMILES): CCCNC(=O)CCc1nc2ccccc2n(CC(=O)Nc2c(C)cccc2CC)c1=O
- RP-LC retention time: 810 s

Structure (SMILES): CCN1CCC2(CC1)N=C(c1ccc3c(c1)OCO3)CC(c1cc(Br)ccc1O)N2 (stereo not given)
- RP-LC retention time: 634 s

Structure (SMILES): CN(C)CC1CN(C(=O)c2ccc3c(c2)OCO3)CC12CCOCC2 (stereo not given)
- RP-LC retention time: 562 s

Structure (SMILES): COc1cc2c(cc1CNC(=O)c1ccc3c(c1)CC(C)O3)OCCCO2 (stereo not given)
- RP-LC retention time: 855 s

Structure (SMILES): Cc1nn(-c2ccc(-c3ccccc3)nn2)c(C)c1S(=O)(=O)NCc1ccc(F)cc1F
- RP-LC retention time: 990 s

Structure (SMILES): Cc1ccc(NC(=O)Cn2c(=O)n(-c3ccc(F)cc3)c(=O)c3c2cc(C)n3C)cc1F
- RP-LC retention time: 882 s

Structure (SMILES): COCCc1noc(C2CN(S(=O)(=O)Cc3ccccc3F)C2)n1
- RP-LC retention time: 858 s

Structure (SMILES): O=C(Nc1nccs1)C1CCN(C(=O)C2COc3ccccc3O2)CC1 (stereo not given)
- RP-LC retention time: 716 s

Structure (SMILES): CCn1cnc2cc(-c3noc(C4CC(=O)N(c5cccc(Cl)c5)C4)n3)ccc21 (stereo not given)
- RP-LC retention time: 731 s

Structure (SMILES): O=C(c1cc(F)ccc1F)N1CCc2nc(-c3ccc(Cl)cc3)ncc2C1
- RP-LC retention time: 1090 s

Structure (SMILES): CC(C)N1CCC(c2nnc3n2CCN(S(=O)(=O)c2ccccc2C(F)(F)F)C3)C1 (stereo not given)
- RP-LC retention time: 631 s

Structure (SMILES): COc1ccc(CNC(=O)N2CCC3(C2)C(=O)N(C)c2ccc(OC)cc23)cc1 (stereo not given)
- RP-LC retention time: 747 s

Structure (SMILES): CC(C)NC(=O)c1ccc(OCC2CCN(C(=O)c3ccc(F)c(F)c3)CC2)cc1
- RP-LC retention time: 873 s

Structure (SMILES): COc1cccc(Nc2nc3ccncc3n(C(C)C)c2=O)c1
- RP-LC retention time: 680 s

Structure (SMILES): CCCCN1CCN(C(=O)c2nnc(-c3ccc(S(=O)(=O)N(C)C)cc3)o2)CC1
- RP-LC retention time: 620 s

Structure (SMILES): CNC(=O)C1CCCN(c2nc3ncn(CC(=O)Nc4cc(C)cc(C)c4)c(=O)c3s2)C1 (stereo not given)
- RP-LC retention time: 694 s

Structure (SMILES): Cc1ccc(CNc2ncccc2-c2nnc(-c3ccc(Cl)cc3)o2)o1
- RP-LC retention time: 1350 s

Structure (SMILES): CCOc1cc(=O)n2c(c1C(=O)N1CCCCCC1)CCCCC2
- RP-LC retention time: 703 s

Structure (SMILES): O=C(Cn1c(=O)oc2ccccc21)N1C[C@H]2C[C@H](C1)[C@H]1CCCC(=O)N1C2
- RP-LC retention time: 658 s

Structure (SMILES): CCn1c(=O)c(C)nc2cc(C(=O)NCCc3c[nH]c4ccc(Cl)cc34)ccc21
- RP-LC retention time: 833 s

Structure (SMILES): CCOCCCNC(=O)c1ccc(CS(=O)c2ccccc2Cl)o1 (stereo not given)
- RP-LC retention time: 704 s

Structure (SMILES): COC1=CC(=O)C[C@@H](C)C12Oc1c(Cl)c(OC)cc(OC)c1C2=O (stereo not given in full)
- RP-LC retention time: 812 s

Structure (SMILES): Cc1cc(N2CCCCC2)nc(N2CCN(S(=O)(=O)c3ccc(Br)cc3)CC2)n1
- RP-LC retention time: 847 s

Structure (SMILES): COc1ccc(C(=O)N2CCC(n3c(-c4ccoc4)nc4cccnc43)C2)cc1 (stereo not given)
- RP-LC retention time: 659 s

Structure (SMILES): COc1ccc2nc(C(=O)NC(C)c3ccc(F)cc3)cn2n1 (stereo not given)
- RP-LC retention time: 821 s

Structure (SMILES): COCCN1CC2(CCN(S(=O)(=O)c3ccccc3Cl)CC2)C1c1ccccc1 (stereo not given)
- RP-LC retention time: 719 s

Structure (SMILES): CC(=O)Nc1ccc(OCC(=O)N(C)Cc2ccccc2)nc1
- RP-LC retention time: 544 s

Structure (SMILES): COc1ccc(NC(=O)N2CCCC2c2nc(-c3ccc(OC)cc3)no2)cc1 (stereo not given)
- RP-LC retention time: 876 s

Structure (SMILES): CC(C)c1noc(CC2CCN(C(=O)c3ccsc3)CC2)n1
- RP-LC retention time: 819 s

Structure (SMILES): CN(Cc1ccccc1)C(=O)c1ccc2c(c1)CCCN2S(C)(=O)=O
- RP-LC retention time: 841 s

Structure (SMILES): CC(=O)c1ccc(NC(=O)CCSc2ccc(Cl)cc2)cc1
- RP-LC retention time: 887 s

Structure (SMILES): COC(=O)C1=CN(c2ccc(F)cc2C)c2ccccc2S1(=O)=O
- RP-LC retention time: 911 s

Structure (SMILES): CCOC(=O)CSc1nc2ccccc2[nH]1
- RP-LC retention time: 596 s

Structure (SMILES): O=C(NCc1ccc(F)cc1)N1CCN(c2nc3ccccc3nc2C(F)(F)F)CC1
- RP-LC retention time: 1010 s
